One test has as its target T1, STAT6 (Homo sapiens, UniProt P42226).
T1 construct: stably transfected HaCaT keratinocyte cell line, which expresses NanoLuc luciferase reporter gene under the transcriptional control of the STAT6 responsive promoter; endogenous in cells; host or cells: HaCaT keratinocyte reporter cell line (stably transfected with a NanoLuc reporter)
T1 sequence (P42226 1-847): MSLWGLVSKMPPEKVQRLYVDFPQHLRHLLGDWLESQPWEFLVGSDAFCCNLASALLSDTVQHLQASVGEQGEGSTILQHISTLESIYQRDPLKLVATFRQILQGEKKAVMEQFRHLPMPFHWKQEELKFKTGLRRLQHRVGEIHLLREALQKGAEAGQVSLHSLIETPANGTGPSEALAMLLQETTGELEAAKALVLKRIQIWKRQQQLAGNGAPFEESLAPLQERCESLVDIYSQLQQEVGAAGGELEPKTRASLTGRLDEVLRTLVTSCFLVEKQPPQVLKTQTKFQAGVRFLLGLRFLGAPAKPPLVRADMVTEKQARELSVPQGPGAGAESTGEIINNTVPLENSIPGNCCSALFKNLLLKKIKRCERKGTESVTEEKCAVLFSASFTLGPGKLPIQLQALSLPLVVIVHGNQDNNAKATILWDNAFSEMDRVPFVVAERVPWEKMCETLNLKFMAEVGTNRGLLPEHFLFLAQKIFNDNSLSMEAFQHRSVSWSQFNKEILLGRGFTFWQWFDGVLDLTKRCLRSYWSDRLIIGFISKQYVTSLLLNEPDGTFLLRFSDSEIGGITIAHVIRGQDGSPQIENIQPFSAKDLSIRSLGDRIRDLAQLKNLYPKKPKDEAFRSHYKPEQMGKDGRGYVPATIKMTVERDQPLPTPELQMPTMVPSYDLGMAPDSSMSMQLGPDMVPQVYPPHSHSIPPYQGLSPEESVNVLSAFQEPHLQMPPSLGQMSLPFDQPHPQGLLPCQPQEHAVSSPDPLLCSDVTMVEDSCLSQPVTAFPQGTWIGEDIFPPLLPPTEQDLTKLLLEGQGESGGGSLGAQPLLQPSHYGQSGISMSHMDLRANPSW
The test can be described thus: STAT6 Reporter Luciferase Assay (IL-13 stimulated HaCaT keratinocyte NanoLuc reporter cells). The class given is cell-based. The conditions noted are these: IL-13 stimulated HaCaT STAT6 NanoLuc reporter cells; read-out: Reporter EC50. Put shortly: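 Compounds were tested as 11-point, 4-fold series in duplicate, applied for 2 h at 37 °C in low-serum (2% FBS) DMEM. The cells were a stable HaCaT line with NanoLuc under a STAT6-responsive IL-13Ra2 promoter. After 4 h with 0.12 nM IL-13, Nano-Glo luminescence was measured.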

Test [1] relates to CCL17 secretion in peripheral human whole blood. The test can be described thus: Human Whole Blood (HWB) CCL17 TR-FRET Assay (IL-13 stimulated CCL17 secretion). The class given is cell-based. As to conditions: human whole blood, IL-13 stimulated. The gist of the method: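 IC50 comes from serum CCL17 measured by a TR-FRET sandwich assay (16 h at room temperature, 665/615 nm ratio). Beforehand, blood in sodium heparin was exposed to an 11-point, 3-fold compound series for 2 h at 37°C and then to 10 ng/mL IL-13 for 48 h.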
A general note: In TR-FRET formats the signal depends on donor and acceptor labels being close together.

One may read the EC50 as the concentration needed to bring the measured effect to its halfway point. A word on the IC50: it is the concentration at which inhibition is half-maximal. Low values mean greater potency in that assay, high ones weaker potency in that assay.

Consider `CCn1nc(C(=O)NCc2ccc(NC(=O)N(C)C)cc2)c2c1CC(C(F)(F)F)N(c1ccc(C(=O)N(C)C)cn1)C2` (single isomer, unassigned) [Example 250, rel-(R or S)-5-(5-(dimethylcarbamoyl)pyridin-2-yl)-N-(4-(3,3-dimethylureido)benzyl)-1-ethyl-6-(trifluoromethyl)-4,5,6,7-tetrahydro-1H-pyrazolo[4,3-c]pyridine-3-carboxamide], for which, on STAT6, the EC50 worked out at 2 nM. In addition, the IC50 in test [1] (48 hours) amounted to 28 nM.
Take `CCn1nc(C(=O)NCc2ccc(NC(=O)N(C)C)cc2)c2c1CC(C(F)(F)F)N(c1ccc(C(=O)N(C)C)cn1)C2` (single isomer, unassigned) [Example 251, rel-(R or S)-5-(5-(dimethylcarbamoyl)pyridin-2-yl)-N-(4-(3,3-dimethylureido)benzyl)-1-ethyl-6-(trifluoromethyl)-4,5,6,7-tetrahydro-1H-pyrazolo[4,3-c]pyridine-3-carboxamide]: at STAT6, the EC50 was determined as 10 nM. Further, the IC50 in test [1] (48 hours) was 80 nM.
For the molecule `C[C@H]1CN(c2ccc(C(=O)N(C)C)cn2)Cc2c(C(=O)NCc3ccc(NC(=O)N(C)C)cc3)nn(C3CCOCC3)c21` (single isomer, unassigned) [Example 258], the concentration for a half-maximal effect (EC50) on STAT6 is 2 nM. In test [1] (Homo sapiens, 48 h), the midpoint of inhibition, the IC50, lay at 8 nM.
Consider `CCC1Cc2c(c(C(=O)NCc3ccc(NC(=O)N(C)C)cc3)nn2C(C)C)CN1c1ccc(C(=O)N(C)C)cn1` (single isomer, unassigned) [Example 267, rel-(R or S)-5-(5-(dimethylcarbamoyl)pyridin-2-yl)-N-(4-(3,3-dimethylureido)benzyl)-6-ethyl-1-isopropyl-4,5,6,7-tetrahydro-1H-pyrazolo[4,3-c]pyridine-3-carboxamide], for which the half-maximal effective concentration (EC50) at STAT6 amounted to 50 nM. This molecule also yielded an IC50 in test [1] (48 hours) of 984 nM.
The corresponding values for `CCC1Cc2c(c(C(=O)NCc3ccc(NC(=O)N(C)C)cc3)nn2C(C)C)CN1c1ccc(C(=O)N(C)C)cn1` (single isomer, unassigned) [Example 268, rel-(R or S)-5-(5-(dimethylcarbamoyl)pyridin-2-yl)-N-(4-(3,3-dimethylureido)benzyl)-6-ethyl-1-isopropyl-4,5,6,7-tetrahydro-1H-pyrazolo[4,3-c]pyridine-3-carboxamide] are 3 nM and 21 nM.
The corresponding values for `CCC1Cc2c(c(C(=O)NCc3ccc(NC(=O)N(C)C)cc3)nn2C)CN1c1ccc(C(=O)N(C)C)cn1` (single isomer, unassigned) [Example 269, rel-(R or S)-5-(5-(dimethylcarbamoyl)pyridin-2-yl)-N-(4-(3,3-dimethylureido)benzyl)-6-ethyl-1-methyl-4,5,6,7-tetrahydro-1H-pyrazolo[4,3-c]pyridine-3-carboxamide] are 87 nM and 834 nM.
The corresponding values for `CCC1Cc2c(c(C(=O)NCc3ccc(NC(=O)N(C)C)cc3)nn2C)CN1c1ccc(C(=O)N(C)C)cn1` (single isomer, unassigned) [Example 270, rel-(R or S)-5-(5-(dimethylcarbamoyl)pyridin-2-yl)-N-(4-(3,3-dimethylureido)benzyl)-6-ethyl-1-methyl-4,5,6,7-tetrahydro-1H-pyrazolo[4,3-c]pyridine-3-carboxamide] are 7 nM and 33 nM.
For the molecule `CC(C)C1CN(c2ccc(C(=O)N(C)C)cn2)Cc2c(C(=O)NCc3ccc(NC(=O)N(C)C)cc3)nn(C)c21` (single isomer, unassigned) [Example 271, rel-(R or S)-5-(5-(dimethylcarbamoyl)pyridin-2-yl)-N-(4-(3,3-dimethylureido)benzyl)-7-isopropyl-1-methyl-4,5,6,7-tetrahydro-1H-pyrazolo[4,3-c]pyridine-3-carboxamide], the concentration giving a half-maximal response (EC50) on STAT6 worked out at 11 nM. Also, the IC50 in test [1] (48 hours) came to 180 nM.
The corresponding values for `CC(C)C1CN(c2ccc(C(=O)N(C)C)cn2)Cc2c(C(=O)NCc3ccc(NC(=O)N(C)C)cc3)nn(C)c21` (single isomer, unassigned) [Example 272, rel-(R or S)-5-(5-(dimethylcarbamoyl)pyridin-2-yl)-N-(4-(3,3-dimethylureido)benzyl)-7-isopropyl-1-methyl-4,5,6,7-tetrahydro-1H-pyrazolo[4,3-c]pyridine-3-carboxamide] are 4 nM and 30 nM.
`C[C@H]1CN(c2ncc(C(=O)N(C)C)cn2)Cc2c(C(=O)NCc3ccc(NC(=O)N(C)C)cc3)nn(C)c21` (single isomer, unassigned) [Example 273]: the EC50 on STAT6 worked out at 3 nM. For the same molecule, the midpoint of inhibition in test [1] (Homo sapiens, 48 h), the IC50, lay at 12 nM.
The corresponding values for `CN(C)C(=O)Nc1ccc(CNC(=O)c2nn(C)c3c2[C@H]2CCC[C@@H](C3)N2c2ccc(C(=O)N(C)C)cn2)cc1` (single isomer, unassigned) [Example 274] are 695 nM and 4770 nM.
Regarding `CN(C)C(=O)Nc1ccc(CNC(=O)c2nn(C)c3c2[C@H]2CCC[C@@H](C3)N2c2ccc(C(=O)N(C)C)cn2)cc1` (single isomer, unassigned) [Example 275], the half-maximal effective concentration (EC50) on STAT6 was 7 nM. In addition, the IC50 in test [1] (48 hours) came to 30 nM.
The corresponding values for `CC(C)n1nc(C(=O)NCc2ccc(NC(=O)N(C)C)cc2)c2c1CC(C(F)(F)F)N(c1ccc(C(=O)N(C)C)cn1)C2` (single isomer, unassigned) [Example 276, rel-(R or S)-5-(5-(dimethylcarbamoyl)pyridin-2-yl)-N-(4-(3,3-dimethylureido)benzyl)-1-isopropyl-6-(trifluoromethyl)-4,5,6,7-tetrahydro-1H-pyrazolo[4,3-c]pyridine-3-carboxamide] are 2 nM and 28 nM.
As to `CC(C)n1nc(C(=O)NCc2ccc(NC(=O)N(C)C)cc2)c2c1CC(C(F)(F)F)N(c1ccc(C(=O)N(C)C)cn1)C2` (single isomer, unassigned) [Example 277, rel-(R or S)-5-(5-(dimethylcarbamoyl)pyridin-2-yl)-N-(4-(3,3-dimethylureido)benzyl)-1-isopropyl-6-(trifluoromethyl)-4,5,6,7-tetrahydro-1H-pyrazolo[4,3-c]pyridine-3-carboxamide], at STAT6, the EC50 came out at 10 nM. Moreover, the midpoint of inhibition in test [1] (48 hours), the IC50, lay at 109 nM.
In the case of `CC1CN(c2ccc(C(=O)N(C)C)cn2)Cc2c1nn1c2C(=O)N(Cc2ccc(NC(=O)N(C)C)cc2)CC1` (single isomer, unassigned) [Example 280, rel-(R or S)-6-(9-(4-(3,3-dimethylureido)benzyl)-4-methyl-10-oxo-3,4,7,8,9,10-hexahydropyrido[4′,3′:3,4]pyrazolo[1,5-alpyrazin-2(1H)-yl)-N,N-dimethylnicotinamide], the concentration for a half-maximal effect (EC50) at STAT6 is 10 nM. This molecule also showed an IC50 in test [1] (Homo sapiens, 48 h) of 134 nM.
`CC1CN(c2ccc(C(=O)N(C)C)cn2)Cc2c1nn1c2C(=O)N(Cc2ccc(NC(=O)N(C)C)cc2)CC1` (single isomer, unassigned) [Example 281, rel-(R or S)-6-(9-(4-(3,3-dimethylureido)benzyl)-4-methyl-10-oxo-3,4,7,8,9,10-hexahydropyrido[4′,3′:3,4]pyrazolo[1,5-alpyrazin-2(1H)-yl)-N,N-dimethylnicotinamide]: the 50% effective concentration (EC50) on STAT6 was 17 nM. The same molecule registered a 50% inhibitory concentration (IC50) in test [1] (48 hours) of 212 nM.
As to `C[C@H]1CN(c2ccc(C(=O)N(C)C)cn2)Cc2c(C(=O)NCc3ccc(NC(=O)N(C)C)cc3)nn(C3(C)CC3)c21` (single isomer, unassigned) [Example 285], the EC50 on STAT6 worked out at 1 nM. In test [1] (Homo sapiens, 48 h), the half-inhibitory concentration (IC50) worked out at 7 nM.
`C[C@H]1CN(c2ccc(C(=O)N(C)C)cn2)Cc2c(C(=O)NCc3ccc(NC(=O)N(C)C)cc3)nn(CC3CC3)c21` (single isomer, unassigned) [Example 287]: the concentration giving a half-maximal response (EC50) on STAT6 came out at 1 nM. In test [1] (Homo sapiens, 48 h), this molecule displayed a 50% inhibitory concentration (IC50) of 13 nM.
Consider `CCn1nc(C(=O)NCc2ccc(NC(=O)N(C)C)cc2)c2c1C(C(F)(F)F)CN(c1ccc(C(=O)N(C)C)cn1)C2` (single isomer, unassigned) [Example 303, rel-(R or S)-5-(5-(dimethylcarbamoyl)pyridin-2-yl)-N-(4-(3,3-dimethylureido)benzyl)-1-ethyl-7-(trifluoromethyl)-4,5,6,7-tetrahydro-1H-pyrazolo[4,3-c]pyridine-3-carboxamide], for which the EC50 on STAT6 stood at 22 nM. In test [1] (48 hours), this molecule gave a concentration for half-maximal inhibition (IC50) of 334 nM.

Values taken from US20250320213A1, “Nitrogen-Containing Heterocyclic Compounds” (Pfizer Inc., priority 2024, published 2025).
